One data set has as its target T1, BSA (Bos taurus, UniProt P02769).
T1 construct: gene ALB
Also noted: Intact protein LC/MS covalent labelling, fragments in pools of five, 200 uM each, 4 °C. Conditions: 24 h, 4 °C, pool of five; 200 µM; covalent.

Another data set deals with T2, NNMT (hNNMT) (Homo sapiens, UniProt P40261).
T2 construct: wild type, N-terminal His6 tag kept (no cleavage described), E. coli, construct 31248 Da
T2 sequence (P40261 1-264): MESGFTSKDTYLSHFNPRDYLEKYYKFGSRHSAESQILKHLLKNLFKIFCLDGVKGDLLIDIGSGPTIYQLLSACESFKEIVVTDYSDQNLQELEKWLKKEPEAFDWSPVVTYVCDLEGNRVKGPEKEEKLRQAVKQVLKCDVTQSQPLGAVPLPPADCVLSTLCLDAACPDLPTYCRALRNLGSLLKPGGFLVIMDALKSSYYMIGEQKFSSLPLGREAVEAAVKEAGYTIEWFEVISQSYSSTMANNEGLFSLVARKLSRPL
Also noted: Intact protein LC/MS covalent labelling, fragments in pools of five, 200 uM each, 4 °C. Particulars: 24 h, 4 °C, pool of five; 200 µM; covalent.

The next data set has as its target T3, PCAF (Homo sapiens, UniProt Q92831).
T3 construct: gene KAT2B
Further details: Intact protein LC/MS covalent labelling, fragments in pools of five, 200 uM each, 4 °C. Particulars: 24 h, 4 °C, pool of five; 200 µM; covalent.

A further data set deals with T4, NUDT7 (Homo sapiens, UniProt P0C024).
T4 construct: residues 14-235, E. coli, pNIC28-Bsa4, N-terminal His6 tag removed by TEV, construct 26672 Da
Also noted: Intact protein LC/MS covalent labelling, fragments in pools of five, 200 uM each, 4 °C. Particulars: 24 h, 4 °C, pool of five; 200 µM; covalent.

A further data set concerns the target T5, OTUB2 (OTUB2A) (Homo sapiens, UniProt Q96DC9).
T5 construct: full length residues 1-234, E. coli BL21(DE3)-R3, His tag removed by TEV, construct 27312 Da
T5 sequence (Q96DC9 1-234): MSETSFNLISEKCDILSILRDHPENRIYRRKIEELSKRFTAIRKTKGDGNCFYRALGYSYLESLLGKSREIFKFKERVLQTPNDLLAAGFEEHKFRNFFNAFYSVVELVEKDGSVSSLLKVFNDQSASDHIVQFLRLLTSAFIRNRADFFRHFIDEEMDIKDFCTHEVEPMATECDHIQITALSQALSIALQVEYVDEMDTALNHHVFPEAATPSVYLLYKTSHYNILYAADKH
Also noted: Intact protein LC/MS covalent labelling, fragments in pools of five, 200 uM each, 4 °C. Particulars: 24 h, 4 °C, pool of five; 200 µM; covalent.

A short description of data set [1]: in vitro. Further details: species or system CCD841, HEK293. Particulars: human, hb2 cells, read-out: HB-2 Cells Viability (%).
A short description of data set [2]: in vitro. Also noted: species or system HB2, CCD841. Conditions: human, hek293 cells.
A short description of data set [3]: in vitro. Also noted: species or system HB2, HEK293. Particulars: human, ccd841 cells.

Like-named read-outs stand apart in the source and are kept apart here.

The text below walks through data of publication PMC6556873, “Rapid Covalent-Probe Discovery by Electrophile-Fragment Screening” (Journal of the American Chemical Society, 2019).

The term viability denotes a read-out of living cells in per cent, often relative to untreated cells.

T4 sequence (P0C024 14-235): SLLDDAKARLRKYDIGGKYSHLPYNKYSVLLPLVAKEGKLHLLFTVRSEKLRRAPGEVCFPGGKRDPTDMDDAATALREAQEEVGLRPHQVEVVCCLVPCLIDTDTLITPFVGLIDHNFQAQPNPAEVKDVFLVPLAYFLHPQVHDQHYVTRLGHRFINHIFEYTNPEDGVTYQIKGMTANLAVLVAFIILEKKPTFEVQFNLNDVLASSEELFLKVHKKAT
T3 sequence (Q92831 whole entry): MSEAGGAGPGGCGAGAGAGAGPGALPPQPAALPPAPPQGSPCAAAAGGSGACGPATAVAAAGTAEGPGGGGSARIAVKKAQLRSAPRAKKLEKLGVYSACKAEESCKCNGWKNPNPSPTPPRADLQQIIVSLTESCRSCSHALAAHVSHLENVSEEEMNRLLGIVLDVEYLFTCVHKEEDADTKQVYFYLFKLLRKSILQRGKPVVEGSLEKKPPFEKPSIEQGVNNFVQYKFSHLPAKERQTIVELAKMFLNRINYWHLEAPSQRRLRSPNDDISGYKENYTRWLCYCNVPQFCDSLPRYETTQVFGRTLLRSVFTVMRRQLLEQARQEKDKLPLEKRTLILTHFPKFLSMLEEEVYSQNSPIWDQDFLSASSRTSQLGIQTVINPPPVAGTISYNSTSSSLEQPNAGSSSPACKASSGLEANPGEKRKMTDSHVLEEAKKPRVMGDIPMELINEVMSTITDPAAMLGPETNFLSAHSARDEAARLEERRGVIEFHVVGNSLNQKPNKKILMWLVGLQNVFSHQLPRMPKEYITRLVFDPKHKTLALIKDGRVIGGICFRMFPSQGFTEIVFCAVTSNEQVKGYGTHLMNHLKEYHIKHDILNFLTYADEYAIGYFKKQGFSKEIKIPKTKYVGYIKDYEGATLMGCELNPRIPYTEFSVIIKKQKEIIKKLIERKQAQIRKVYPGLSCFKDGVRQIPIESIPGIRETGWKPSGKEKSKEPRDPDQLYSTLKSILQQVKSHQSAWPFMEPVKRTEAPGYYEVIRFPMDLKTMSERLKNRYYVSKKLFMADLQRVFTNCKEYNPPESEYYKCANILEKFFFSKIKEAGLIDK
T1 sequence (P02769 whole entry): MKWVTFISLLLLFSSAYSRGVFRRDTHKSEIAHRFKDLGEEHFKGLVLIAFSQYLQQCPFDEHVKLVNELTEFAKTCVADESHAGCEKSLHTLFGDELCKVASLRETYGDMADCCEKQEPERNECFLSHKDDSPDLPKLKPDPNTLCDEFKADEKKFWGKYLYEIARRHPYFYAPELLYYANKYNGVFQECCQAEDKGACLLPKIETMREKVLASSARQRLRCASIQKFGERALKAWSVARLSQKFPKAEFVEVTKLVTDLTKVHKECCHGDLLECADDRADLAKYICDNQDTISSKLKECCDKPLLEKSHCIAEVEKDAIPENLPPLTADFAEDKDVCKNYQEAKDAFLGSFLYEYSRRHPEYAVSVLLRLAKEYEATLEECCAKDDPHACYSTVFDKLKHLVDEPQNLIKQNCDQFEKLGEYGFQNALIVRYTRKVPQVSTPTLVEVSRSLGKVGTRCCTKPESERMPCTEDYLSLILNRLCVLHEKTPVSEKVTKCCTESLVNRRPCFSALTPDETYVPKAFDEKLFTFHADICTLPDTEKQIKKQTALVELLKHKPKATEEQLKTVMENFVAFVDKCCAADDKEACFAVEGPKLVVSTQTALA

As for `C=CC(=O)NCC1CCC2(CCOCC2)C1O` (stereo not drawn) [PCM-0102569], the BSA on BSA is listed as 0. Moreover, the NNMT on NNMT (hNNMT) is 0.36. For the same compound, on PCAF, the PCAF amounted to 0. Further, the NUDT7 on NUDT7 was found to be 0.11. On OTUB2 (OTUB2A), this compound yielded an OTUB2 of 0. For the same compound, the values for the viability at 48 h, 10 µM in “in vitro [1]”, in the data set “in vitro [2]” and in the data set “in vitro [3]” were 110%, 84.7% and 110%, respectively.
`C=CC(=O)N1CCCC1C1COCCC1(C)O` (stereo not drawn) [PCM-0102571] had a BSA at BSA of 0. Moreover, at NNMT (hNNMT), the NNMT is given as 0. Besides, the PCAF at PCAF turned out to be 0. Moreover, the NUDT7 at NUDT7 amounted to 0. The same compound had an OTUB2 at OTUB2 (OTUB2A) of 0. Besides, the figures for the viability at 48 h, 10 µM in “in vitro [1]”, in the data set “in vitro [2]” and in the data set “in vitro [3]” were 107%, 104% and 107%, respectively.
On BSA, `C=CC(=O)Nc1cccc(C(F)(F)F)c1` [PCM-0102573] came in with a BSA of 0. For the same compound, the NNMT at NNMT (hNNMT) was 0. In addition, at PCAF, the PCAF is 0. The same compound had an NUDT7 on NUDT7 of 0. The same compound returned an OTUB2 on OTUB2 (OTUB2A) of 0. For the same compound, the viability at 48 h, 10 µM in the data set “in vitro [1]” was 103%; in the data set “in vitro [2]” it was 108%; in “in vitro [3]” it was 105%.
On BSA, `COc1ccccc1C(=O)NC(=O)CCl` [PCM-0102574] came in with a BSA of 0. The compound further displayed an NNMT on NNMT (hNNMT) of 0. Besides, at PCAF, the PCAF came to 0. This compound also returned an NUDT7 on NUDT7 of 0. The compound further came in with an OTUB2 on OTUB2 (OTUB2A) of 0. The viability at 48 h, 10 µM in “in vitro [1]” is 104%; in “in vitro [2]”, 118%; in “in vitro [3]”, 127%.
On BSA, `C=CC(=O)N1CCN(C(=O)Nc2ccc(C)c(Cl)c2)CC1` [PCM-0102604] gave a BSA of 0. The compound also gave an NNMT on NNMT (hNNMT) of 0. This compound also displayed a PCAF on PCAF of 0. At NUDT7, this compound displayed an NUDT7 of 0. The compound further registered an OTUB2 at OTUB2 (OTUB2A) of 0. The figures for the viability at 48 h, 10 µM in the data set “in vitro [1]”, in the data set “in vitro [2]” and in the data set “in vitro [3]” were 74.6%, 91.5% and 122%, respectively.
`C=CC(=O)N1CCn2nc(C)nc2C1` [PCM-0102605]: the BSA at BSA was 0. The compound also yielded an NNMT at NNMT (hNNMT) of 0. Besides, at PCAF, the PCAF came to 0. In addition, the NUDT7 on NUDT7 was 0. For the same compound, the OTUB2 on OTUB2 (OTUB2A) is given as 0. In addition, the viability at 48 h, 10 µM in “in vitro [1]” came out at 102%; in “in vitro [2]”, 88.4%; in “in vitro [3]”, 104%.
For the compound `C=CC(=O)NC1(C(N)=O)CCCOC1` (stereo not drawn) [PCM-0102608], the BSA on BSA is recorded as 0. The compound also had an NNMT at NNMT (hNNMT) of 0. The compound further returned a PCAF at PCAF of 0. The NUDT7 at NUDT7 was found to be 0. Further, the OTUB2 on OTUB2 (OTUB2A) turned out to be 0. The viability at 48 h, 10 µM was determined as 107% in “in vitro [1]”, 118% in “in vitro [2]” and 107% in “in vitro [3]”.
`C=CC(=O)N1CCCCC1c1ccc(C(=O)NC)n1C` (stereo not drawn) [PCM-0102610] yielded a BSA at BSA of 0. On NNMT (hNNMT), this compound had an NNMT of 0.14. Moreover, on PCAF, the PCAF was 0. The compound also came in with an NUDT7 at NUDT7 of 0. At OTUB2 (OTUB2A), this compound returned an OTUB2 of 0. In addition, the results for the viability at 48 h, 10 µM in the data set “in vitro [1]”, in the data set “in vitro [2]” and in “in vitro [3]” were 106%, 99.3% and 112%, respectively.
As for `C=CC(=O)N1CC(C)(C)C1c1cccs1` (stereo not drawn) [PCM-0102611], on BSA, the BSA is given as 0. Moreover, the NNMT on NNMT (hNNMT) came out at 0. The compound also came in with a PCAF at PCAF of 0. The NUDT7 on NUDT7 is 0. Moreover, at OTUB2 (OTUB2A), the OTUB2 is reported as 0. Moreover, the viability at 48 h, 10 µM came out at 107% in “in vitro [1]”, 71.3% in the data set “in vitro [2]” and 95.8% in the data set “in vitro [3]”.
For the compound `C=CC(=O)N1CCC(C(=O)[O-])CC1.[Na+]` [PCM-0102613], the BSA on BSA is listed as 0. The same compound returned an NNMT at NNMT (hNNMT) of 0. The same compound came in with a PCAF on PCAF of 0. The same compound returned an NUDT7 at NUDT7 of 0. The same compound returned an OTUB2 on OTUB2 (OTUB2A) of 0. The viability at 48 h, 10 µM is 98.2% in the data set “in vitro [1]”, 114% in the data set “in vitro [2]” and 125% in the data set “in vitro [3]”.
`CC1CCCC(C)N1C(=O)CCl` (stereo not drawn) [PCM-0102616]: the BSA on BSA was found to be 0. The same compound returned an NNMT at NNMT (hNNMT) of 0.2. The compound further registered a PCAF at PCAF of 0. At NUDT7, this compound came in with an NUDT7 of 0. The OTUB2 on OTUB2 (OTUB2A) amounted to 0. Moreover, the viability at 48 h, 10 µM is 71% in the data set “in vitro [1]”, 57.9% in the data set “in vitro [2]” and 88.1% in “in vitro [3]”.
Consider `C=CC(=O)N1CCC(NC(=O)OC(C)(C)C)CC1` [PCM-0102617], for which the BSA at BSA is listed as 0. The NNMT at NNMT (hNNMT) is given as 0.16. In addition, the PCAF on PCAF is listed as 0. The compound also displayed an NUDT7 at NUDT7 of 0. This compound yielded an OTUB2 at OTUB2 (OTUB2A) of 0. In addition, the viability at 48 h, 10 µM is 104% in the data set “in vitro [1]”, 94.2% in “in vitro [2]” and 105% in “in vitro [3]”.
Compound `CCc1cccc(C)c1NC(=O)CCl` [PCM-0102618] gave a BSA at BSA of 0. At NNMT (hNNMT), this compound registered an NNMT of 0. The compound also showed a PCAF at PCAF of 0. The compound further returned an NUDT7 on NUDT7 of 0.11. The OTUB2 on OTUB2 (OTUB2A) was 0. The viability at 48 h, 10 µM in the data set “in vitro [1]” came out at 98.3%; in the data set “in vitro [2]” it was 101%; in “in vitro [3]” it was 106%.
With `Cc1ccc(NC(=O)NC(=O)CCl)cc1` [PCM-0102623], on BSA, the BSA is recorded as 0. For the same compound, the NNMT on NNMT (hNNMT) came out at 0.71. This compound yielded a PCAF on PCAF of 0. The same compound had an NUDT7 at NUDT7 of 0.11. In addition, the OTUB2 at OTUB2 (OTUB2A) was determined as 0. For the same compound, the results for the viability at 48 h, 10 µM in the data set “in vitro [1]”, in “in vitro [2]” and in the data set “in vitro [3]” were 69.1%, 80.6% and 82.5%, respectively.
In the case of `CC(C)C(C)(C#N)NC(=O)CCl` (stereo not drawn) [PCM-0102626], on BSA, the BSA is 0. This compound displayed an NNMT on NNMT (hNNMT) of 0. This compound gave a PCAF at PCAF of 0. The NUDT7 on NUDT7 came to 0. On OTUB2 (OTUB2A), this compound registered an OTUB2 of 0. Also, the viability at 48 h, 10 µM in the data set “in vitro [1]” is 96.4%; in “in vitro [2]”, 89.9%; in “in vitro [3]” it was 82.1%.
Regarding `CN(C)C(=O)CN(C)C(=O)CCl` [PCM-0102632], the BSA at BSA came out at 0. Besides, the NNMT on NNMT (hNNMT) was found to be 0. The PCAF on PCAF worked out at 0. At NUDT7, this compound registered an NUDT7 of 0. For the same compound, at OTUB2 (OTUB2A), the OTUB2 came to 0.14. Moreover, the viability at 48 h, 10 µM in the data set “in vitro [1]” turned out to be 102%; in the data set “in vitro [2]” it was 89.7%; in “in vitro [3]”, 114%.
On BSA, `C=CC(=O)NC1(c2nnc3n2CCCC3)CCC1` [PCM-0102639] came in with a BSA of 0. At NNMT (hNNMT), this compound returned an NNMT of 0. The same compound returned a PCAF on PCAF of 0. The same compound showed an NUDT7 on NUDT7 of 0. Besides, at OTUB2 (OTUB2A), the OTUB2 came out at 0. The viability at 48 h, 10 µM in “in vitro [1]” came to 101%; in “in vitro [2]”, 123%; in “in vitro [3]” it was 131%.
For `C=CC(=O)N1CCc2sccc2C1c1cccs1` (stereo not drawn) [PCM-0102640], at BSA, the BSA turned out to be 0. The NNMT at NNMT (hNNMT) is reported as 0. The compound further had a PCAF on PCAF of 0. On NUDT7, the NUDT7 came to 0. The compound also registered an OTUB2 at OTUB2 (OTUB2A) of 0. Further, the viability at 48 h, 10 µM in “in vitro [1]” was 97.9%; in the data set “in vitro [2]” it was 98.7%; in the data set “in vitro [3]”, 115%.
